22 compounds from ChEMBL document CHEMBL1201862, “PubChem BioAssay data set” (2004) can be followed below.

Each structure is given as a SMILES string.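 Where inhibition never reached the appropriate level, the endpoint shown equals the highest concentration tested. Otherwise, values were interpolated linearly from a five-concentration, 48-hour dose response in 96-well plates. GI50 = concentration required for 50% inhibition of growth.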 Calls of active or inactive are those of the source. No stated cut-off is given here; in the data, active = GI50 up to about 1.1 µM and inactive = higher. Some results are limits rather than exact numbers.

In general, GI50 refers to the concentration at which growth is held to half of that of the control.

What all share (test): DTP human tumour cell line panel, 48 h
The subject of experiment [1] is MDA-MB-435.
For experiment [2], the system named is Hs-578T.
Experiment [3] deals with DU-145.
Experiment [4] relates to KM-20L2.
Experiment [5] relates to SNB-78.
Experiment [6] concerns DMS-273.
Experiment [7] concerns DLD-1.
The subject of experiment [8] is LXFL 529.
Experiment [9] has as its system RXF 631.

On to `CC(=O)OC1CCC2(C)C(=CCC3C2CCC2(C)C3CC3OC4(CCC(C)CN4)C(C)C32)C1` (stereo not given), for which the GI50 in experiment [1], in experiment [2] and in experiment [3] was > 100 µM (inactive) throughout.

Regarding `COC1/C=C/C=C(/C)Cc2cc(O)c(Cl)c(c2)N(C)C(=O)CC(OC(=O)C(C)C)C2(C)OC2C(C)C2CC1(O)NC(=O)O2` (stereo not given), the GI50 in experiment [1] and in experiment [3] was < 0.01 µM (active) each time.

On to `CC(C)(C)c1cc(C2COC(=O)COCCOCC(=O)OCCOCCO2)cc(C(C)(C)C)c1O` (stereo not given), for which the GI50 in experiment [1] was 37.3 µM (inactive); in experiment [2] it was 27.7 µM (inactive); in [3], 19.5 µM (inactive).

As for `c1ccc2cc3c(cc2c1)OP1(Oc2cccc4cccnc24)(O3)Oc2cc3ccccc3cc2O1`, the GI50 in experiment [4] was 3.39 µM (inactive); in experiment [5], 26.4 µM (inactive); in experiment [6] it was 3.49 µM (inactive); in [7], 4.2 µM (inactive).

`CC(C)N/C(N)=N/C#N`: the GI50 in experiment [4], in [5], in experiment [8] and in experiment [7] was > 100 µM (inactive) in each case.

Regarding `CCOC(=O)C[n+]1ccc2c([nH]c3cc(OC)ccc32)c1C`, the GI50 in experiment [4] is > 65.2 µM (inactive); in [5], > 100 µM (inactive); in [6], > 100 µM (inactive); in [7] it was > 100 µM (inactive).

Take `CCC(/C=C/c1ccccc1)=N\Nc1ccc(Cl)c(Cl)c1`: the GI50 in experiment [1] was 33.3 µM (inactive); in [2], 55.3 µM (inactive); in experiment [3] it was 89.1 µM (inactive).

With `Cc1ccc(C(=O)N/N=C(\N=N\c2ccc([N+](=O)[O-])cc2)c2ccc(N(CCC#N)CCC#N)cc2C)cc1`, the GI50 in experiment [1] is 67.8 µM (inactive); in experiment [2], 50.1 µM (inactive); in experiment [3], 97.1 µM (inactive).

For the compound `Cc1ccc(OP2(=O)Oc3ccc4ccccc4c3CN2c2ccc(Cl)cc2)cc1C` (stereo not given), the GI50 in [4], in experiment [5], in experiment [6] and in [7] was > 100 µM (inactive) each time.

For the compound `O=C1CN(c2cccc(C(F)(F)F)c2)C(=O)CN1CCN1CC(=O)N(c2cccc(C(F)(F)F)c2)CC1=O`, the GI50 in experiment [1] and in experiment [2] was > 100 µM (inactive) throughout.

For the compound `C/C(=C\C(=O)Nc1ccc2[nH]nnc2c1)Nc1ccc2[nH]nnc2c1`, the GI50 in experiment [9], in [4], in [5], in experiment [8] and in experiment [7] was > 100 µM (inactive) in each case.

As for `O=[N+]([O-])c1cnccc1-n1nnc2ccccc21`, the GI50 in experiment [4] was 29.2 µM (inactive); in experiment [5] it was 27 µM (inactive); in [6], 14.1 µM (inactive); in [7] it was 20.2 µM (inactive).

Consider `Cc1ccccc1NC(=O)C(=O)C(C1OC(=O)c2ccccc21)[N+](=O)[O-]` (stereo not given), for which the GI50 in [4], in [5], in experiment [8], in experiment [6] and in experiment [7] was > 100 µM (inactive) throughout.

Take `O=C1OCc2cccc3c2-c2c1cccc2C(=O)OC3`: the GI50 in [4], in experiment [5] and in experiment [7] was > 100 µM (inactive) in each case.

For `BrC1=CN2C[n+]3cc(Br)c4ccccc4c3N=C2c2ccccc21`, the GI50 in experiment [1] was 6.18 µM (inactive); in [2] it was 22.1 µM (inactive); in experiment [3] it was 16.6 µM (inactive).

With `S=C(NCCCCCCNC(=S)Nc1c2ccccc2nc2ccccc12)Nc1c2ccccc2nc2ccccc12`, the GI50 in experiment [4] was 79.4 µM (inactive); in [5], > 87.7 µM (inactive); in [6], 65.9 µM (inactive); in experiment [7], 70.1 µM (inactive).

On to `N#Cc1c(Cl)c2cccnc2n2c1nc1ccccc12`, for which the GI50 in experiment [1] was 4.3 µM (inactive); in experiment [2], 2.79 µM (inactive); in experiment [3], 1.98 µM (inactive).

As to `O=C(c1ccccc1)N1C(=S)NC(=N/c2ccccc2)/C1=N\c1ccccc1`, the GI50 in experiment [1], in experiment [2] and in experiment [3] was > 100 µM (inactive) each time.

For the compound `CO/N=C(\C)c1ccc(Nc2nc3ccccc3c3occc23)cc1`, the GI50 in experiment [1] was 16.4 µM (inactive); in experiment [2], 12.5 µM (inactive); in experiment [3], 15.5 µM (inactive).

As for `CSCSCC(N)CO.Cc1[nH]c(=O)[nH]c(=O)c1/C=C/C(=O)O`, the GI50 in experiment [4] was > 625 µM (inactive); in experiment [5], 618 µM (inactive); in [6] it was > 625 µM (inactive); in [7] it was > 625 µM (inactive).

With `C=CC1(NC(=O)c2ccccc2)CCC(C(C)(C)C)CC1` (stereo not given), the GI50 is 19.1 µM (inactive) in experiment [4], 39.1 µM (inactive) in [5], 32.2 µM (inactive) in experiment [6] and 36.6 µM (inactive) in experiment [7].

On to `COc1ccccc1-c1cc(O)c2c(C)ccnc2n1`, for which the GI50 in [2] was 11.5 µM (inactive); in experiment [3], 41.2 µM (inactive).
